ChEMBL document CHEMBL1914306, “The design, synthesis and biological evaluation of novel URB602 analogues as potential monoacylglycerol lipase inhibitors” (Bioorg Med Chem Lett, 2011)

What was measured:
[1] = biological target: T1, Monoglyceride lipase (Homo sapiens) (UniProt Q99685); assay: Inhibition of human recombinant MAGL assessed as remaining activity at 1 uM after 10 mins by spectrophotometry relative to control
T1 sequence (whole entry): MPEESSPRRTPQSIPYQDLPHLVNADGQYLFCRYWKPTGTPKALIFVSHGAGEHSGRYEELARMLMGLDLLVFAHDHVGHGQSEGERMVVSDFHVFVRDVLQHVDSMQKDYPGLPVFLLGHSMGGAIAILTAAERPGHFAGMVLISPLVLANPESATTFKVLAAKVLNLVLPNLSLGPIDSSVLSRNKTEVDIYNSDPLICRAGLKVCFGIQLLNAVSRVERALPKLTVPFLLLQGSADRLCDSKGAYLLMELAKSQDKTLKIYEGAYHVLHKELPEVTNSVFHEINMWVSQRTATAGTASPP

[2] = biological target: T1, Monoglyceride lipase (Homo sapiens); assay: Inhibition of human recombinant MAGL assessed as remaining activity at 10 uM after 10 mins by spectrophotometry relative to control
[3] = biological target: T1, Monoglyceride lipase (Homo sapiens); assay: Inhibition of human recombinant MAGL assessed as remaining activity at 100 uM after 10 mins by spectrophotometry relative to control
[4] = biological target: T1, Monoglyceride lipase (Homo sapiens); assay: Inhibition of MAGL assessed as remaining activity using 4-nitrophenylacetate as substrate at 10 uM relative to control

O=C(Nc1cccc(-c2ccccc2)c1)OC1CCCCCCC1
Activity [1]: 101%
Activity [2]: 92%

O=C(Nc1cccc(-c2ccccc2)c1)OC1CCCCC1
Activity [1]: 93%
Activity [2]: 71%
Activity [3]: 73%
Activity [4]: 84%

CC(C)[C@@H]1CC[C@@H](C)C[C@H]1OC(=O)Nc1cccc(-c2ccccc2)c1
Activity [1]: 106%
Activity [2]: 101%

O=C(Nc1cccc(-c2ccc(O)cc2)c1)OC1CCCCC1
Activity [1]: 83%
Activity [2]: 46%
Activity [3]: 26%

O=C(Nc1cccc(-c2ccccc2)c1)OC1CCC1
Activity [1]: 97%
Activity [2]: 86%
Activity [3]: 85%

S=C(Nc1cccc(-c2ccccc2)c1)OC1CCCCCC1
Activity [1]: 79%
Activity [2]: 83%

O=C(Nc1cccc(-c2ccccc2)c1)O[C@H]1C[C@H]2CC[C@@H]1C2
Activity [1]: 95%
Activity [2]: 79%

S=C(Nc1cccc(-c2ccccc2)c1)OC1CCCCC1
Activity [1]: 73%
Activity [2]: 83%

O=C(Nc1cccc(-c2ccccc2)c1)NC1CCCCCC1
Activity [1]: 96%
Activity [2]: 80%
Activity [3]: 55%

O=C(Nc1cccc(-c2ccc(Cl)cc2)c1)OC1CCCCC1
Activity [1]: 85%
Activity [2]: 81%
Activity [3]: 81%

O=C(Nc1cccc(-c2ccccc2)c1)NC1CCCC1
Activity [1]: 80%
Activity [2]: 73%

O=C(Nc1cccc(-c2ccccc2)c1)OC1CCCC1
Activity [1]: 93%
Activity [2]: 71%

O=C(Nc1cccc(-c2ccccc2)c1)OC1CCCCCC1
Activity [1]: 94%
Activity [2]: 71%

O=C(Nc1cccc(-c2ccccc2)c1)NC1CCCCC1
Activity [1]: 98%
Activity [2]: 79%
Activity [3]: 78%

S=C(Nc1cccc(-c2ccccc2)c1)NC1CCCCC1
Activity [1]: 93%
Activity [2]: 76%
